Results reported in patent US4863916A, “Substituted 6-hydroxymethyl-carbapenem antibiotics” (Bayer Aktiengesellschaft, priority 1986, dated 1989).

How the values were obtained:
Experiment in all cases: Antibacterial action, minimum inhibitory concentration (MIC), agar method on Iso-sensitest agar
Type in all cases: cell-based
[1] = tested on: Staph. 24455
Source text: (§1) The agar solution method was used for determining the antibacterial action, an Iso-sensitest agar being used and the minimum inhibitory concentration (MIC) of the sample being expressed in μg/ml of the nutrient medium (Table).

[2] = tested on: Staph. E 25185
Source text: as §1

[3] = tested on: Staph. 133
Source text: as §1

- MIC [1]: 0.5 µg/mL
- MIC [2]: 1 µg/mL
- MIC [3]: 0.5 µg/mL
Structure (SMILES): COC(=O)[C@@H](O)[C@H]1C(=O)N2C(C(=O)O)=C(Sc3ccncc3)C[C@H]12 [Example 14, Sodium (5R,6S)-6-[(1S)-1-hydroxy-1-methoxycarbonyl]methyl-7-oxo-3-(4-pyridinylthio)-1-azabicyclo[3.2.0]hept-2encarboxylate]
